Experimental data reported in ChEMBL document CHEMBL1799939, “Synthesis and biological evaluation of novel thiazolidinedione analogues as 15-hydroxyprostaglandin dehydrogenase inhibitors” (J Med Chem, 2011).
One block for each compound: values may come before it. Calls of active or inactive are those of the source. The calls are words filed in the database; no cut-off is given here.

Key:
[1] = biological target: T1, 15-hydroxyprostaglandin dehydrogenase [NAD(+)] (Homo sapiens, UniProt P15428); experiment: Inhibition of human 15-PGDH expressed in Escherichia coli using PGE2 as substrate and NAD+ as coenzyme assessed as formation of NADH by spectrophotometric analysis
T1 sequence (P15428 whole entry): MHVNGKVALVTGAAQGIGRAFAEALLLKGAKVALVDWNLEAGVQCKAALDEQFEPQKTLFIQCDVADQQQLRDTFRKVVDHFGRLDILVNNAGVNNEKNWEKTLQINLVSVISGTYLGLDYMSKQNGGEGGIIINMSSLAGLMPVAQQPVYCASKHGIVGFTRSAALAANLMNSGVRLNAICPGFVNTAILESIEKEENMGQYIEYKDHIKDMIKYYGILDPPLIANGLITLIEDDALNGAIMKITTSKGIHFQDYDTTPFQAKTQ

A549 [2] = experiment: Effect on MRP4 expression in human A549 cells at 5 uM after 25 hrs by RT-PCR analysis; type: functional, cell-based
A549 [3] = experiment: Induction of PGT expression in human A549 cells at 5 uM after 25 hrs by RT-PCR analysis; type: functional, cell-based
[4] = biological target: T2, 15-hydroxyprostaglandin dehydrogenase [NAD(+)] (Homo sapiens) (UniProt P15428); experiment: Inhibition of human 15-PGDH in human A549 cells assessed as increase in IL1-beta stimulated PGE2 production at 5 uM after 5 hrs by enzyme immunoassay; type: cell-based
T2 sequence (whole entry): T1 sequence (P15428 whole entry)

A549 [5] = experiment: Effect on COX2 expression in human A549 cells at 5 uM after 25 hrs by RT-PCR analysis; type: functional, cell-based
A549 [6] = experiment: Inhibition of COX1 expression in human A549 cells at 5 uM after 25 hrs by RT-PCR analysis; type: functional, cell-based
[7] = biological target: T2, 15-hydroxyprostaglandin dehydrogenase [NAD(+)] (Homo sapiens); experiment: Inhibition of human 15-PGDH in human A549 cells assessed as increase in IL1-beta stimulated PGE2 production after 5 hrs by enzyme immunoassay; type: cell-based
HaCaT = experiment: Wound healing activity in human HaCaT cells assessed as re-epithelialization at 5 uM after 48 hrs by inverted microscopic analysis relative to control; type: functional, cell-based
Cavia porcellus [8] = experiment: Increase in cochlear blood flow in guinea pig at 20 ug, iv measured after 50 mins; type: functional
Cavia porcellus [9] = experiment: Increase in cochlear blood flow in guinea pig at 10 ug, iv measured after 40 mins; type: functional

SMILES: O=C1NC(=O)/C(=C/c2ccc(OC3CCCCC3)c(Cl)c2)S1
- IC50 [1]: 47 nM

SMILES: COc1cc(/C=C2\SC(=O)N(C)C2=O)ccc1OCCC1CCCCC1
- IC50 [1]: > 50000 nM
- Activity [7]: Dose-dependent effect

SMILES: COc1cc(/C=C2\SC(=O)NC2=O)ccc1OCCC1CCCCC1
- Activity (Cavia porcellus [8]): 65%
- IC50 [1]: 25 nM
- Activity [7]: Dose-dependent effect
- Activity (A549 [2]): inactive
- Activity (A549 [3]): Active
- Activity [4]: Active
- Activity (A549 [5]): inactive
- Activity (Cavia porcellus [9]): 22%
- Activity (A549 [6]): Active

SMILES: O=C1NC(=O)/C(=C/c2ccc(OCC3CCCCC3)c(Cl)c2)S1
- IC50 [1]: 28 nM

SMILES: O=C1N=C(O)S/C1=C\c1ccc(OCCC2CCCCC2)cc1
- Activity [4]: Active

The next lines start with results.

- IC50 [1]: 8 nM
- Activity [4]: Active
SMILES: O=C1N=C(O)S/C1=C\c1ccc(OCCC2CCCCC2)c(Cl)c1
- Activity (A549 [2]): inactive
- Activity (A549 [3]): Active
- Activity (A549 [5]): inactive
- Activity (A549 [6]): Active

- IC50 [1]: 10 nM
SMILES: O=C1N=C(O)S/C1=C\c1ccc(OCCCC2CCCCC2)c(Cl)c1

- IC50 [1]: 19 nM
- Activity [4]: Active
SMILES: O=C1N=C(O)S/C1=C\c1ccc(OCCC2CCCCC2)c(Br)c1
- Activity (HaCaT): Active

- IC50 [1]: 24 nM
SMILES: O=C1N=C(O)S/C1=C\c1ccc(OCCCCC2CCCCC2)c(Cl)c1
